Measurements published in patent US20230131402A1, “SPIRO-LACTAM NMDA RECEPTOR MODULATORS AND USES THEREOF” (Aptinyx Inc., priority 2016, published 2023).
Like-named read-outs stand apart in the source and are kept apart here.

What was measured:
NMDAR2B = target: T1, NMDAR2B (Homo sapiens, UniProt Q13224); assay: [3H]MK-801 binding, NMDAR2B expressing HEK cell membranes; assay type: biochemical; details: 50 μM glutamate; for Emax: read-out: NMDAR2B A: % maximal [3H]MK-801 binding relative to 1 mM glycine; for EC50: read-out: NMDAR2B B: log EC50 (converted)
T1 construct: expressed in transfected cells; host or cells: HEK cells (membrane extract)
How it was run: (§1)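 HEK membranes expressing NMDAR2A, 2B, 2C or 2D (300 μg protein) were preincubated 15 min at 25 °C with 50 μM glutamate and compound (1×10^−15–1×10^−7 M), then 15 min with 0.3 μCi [3H]MK-801 (nonequilibrium) before filtration. Baseline-subtracted binding was normalized to 1 mM glycine, yielding EC50 and % maximal activity.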

[1] = Oral pharmacokinetics (plasma, brain, CSF); details: rat, 10 mg/kg, per os
Description: Plasma, brain, and CSF samples were analyzed at various time points over a 24 hour period.

[2] = system: positive (hedonic) 50-kHz ultrasonic vocalizations (USVs); assay: Positive emotional learning (PEL) test; assay type: in vivo, rats; details: rat, PO, 1 h after administration
Description: Experiments were conducted as described in Burgdorf et al., “The effect of selective breeding for differential rates of 50-kHz ultrasonic vocalizations on emotional behavior in rats,” Devel. Psychobiol., 51:34-46 (2009). Rat 50-kHz ultrasonic vocalization (hedonic USVs) is a validated model for the study of positive affective state and is best elicited by rough-and-tumble play.
The PEL assay measures the acquisition of positive (hedonic) 50-kHz ultrasonic vocalizations (USVs) to a social stimulus, heterospecific rough and tumble play stimulation. Heterospecific rough-and-tumble play stimulation was administered by the experimenter's right hand. One hour after administration of test compound or vehicle negative control (0.5% sodium carboxymethyl cellulose in 0.9% sterile saline vehicle), animals received 3 min of heterospecific rough-and-tumble play that consisted of alternating 15 sec blocks of heterospecific play and 15 sec of no-stimulation. High frequency ultrasonic vocalizations (USVs) were recorded and analyzed by sonogram with Avasoft SASlab Pro (Germany) as previously described by Burgdorf et al., “Positive emotional learning is regulated in the medial prefrontal cortex by GluN2B-containing NMDA receptors,” Neuroscience, 192:515-523 (2011). Frequency modulated 50-kHz US V s that occurred during each of the no-stimulation periods were quantified to measure PEL. Animals were not habituated to play stimulation before testing. Positive emotional learning was measured during the conditioned stimulus (CS) trials preceding the tickle unconditioned stimulus (UCS) trials. Animals received 15 second trials consisting of 6 CS and 6 UCS trials each (3 min total).
The table below summarizes the findings. As each experiment includes its own vehicle group, an example (typical) vehicle score is shown. Max effect (mean number of 50 kHz USVs per 15 seconds) is reported as ∧: <6.0; *: 6.0-7.6; **: 7.7-10; ***: 10.1-20.

NMDAR2A = target: T2, NMDAR2A (Homo sapiens, UniProt Q12879); assay: [3H]MK-801 binding, NMDAR2A expressing HEK cell membranes; assay type: biochemical; details: 50 μM glutamate; for Emax: read-out: NMDAR2A A: % maximal [3H]MK-801 binding relative to 1 mM glycine; for EC50: read-out: NMDAR2A B: log EC50 (converted)
T2 construct: expressed in transfected cells; host or cells: HEK cells (membrane extract)
How it was run: as §1

IV pharmacokinetics = assay type: in vivo, Sprague Dawley rats; details: rat, 2 mg/kg, normal saline (compounds marked * in 1% NMP and 99% normal saline); for Vd: read-out: Vss
From the text: The table below summarizes the results of the IV pharmacokinetics.

NMDAR2D [3] = target: T3, NMDAR2D (Homo sapiens, UniProt O15399+Q05586); assay: [3H]MK-801 binding, NMDAR2D expressing HEK cell membranes; assay type: biochemical; details: 50 μM glutamate, read-out: NMDAR2D B: log EC50 (converted)
T3 construct: expressed in transfected cells; host or cells: HEK cells (membrane extract)
Description: (§2) Assays were conducted as described by Moskal et al., “GLYX-13: a monoclonal antibody-derived peptide that acts as an N-methyl-D-aspartate receptor modulator,” Neuropharmacology, 49, 1077-87, 2005. These studies were designed to determine if the test compounds act to facilitate NMDAR activation in NMDAR2A, NMDAR2B, NMDAR2C or NMDAR2D expressing HEK cell membranes as measured by increases in [^3H]MK-801 binding.
(§3) In the assay, 300 μg of NMDAR expressing HEK cell membrane extract protein was preincubated for 15 minutes at 25° C. in the presence of saturating concentrations of glutamate (50 μM) and varying concentrations of test compound (1×10^−15M−1×10^−7M), or 1 mM glycine. Following the addition of 0.3 μCi of [^3H]MK-801 (22.5 Ci/mmol), reactions were again incubated for 15 minutes at 25° C. (nonequilibrium conditions). Bound and free [^3H]MK-801 were separated via rapid filtration using a Brandel apparatus.
(§4) In analyzing the data, the DPM (disintegrations per minute) of [^3H]MK-801 remaining on the filter were measured for each concentration of test compound or for 1 mM glycine. The DPM values for each concentration of a ligand (N=2) were averaged. The baseline value was determined from the best fit curve of the DPM values modeled using the GraphPad program and the log(agonist) vs. response(three parameters) algorithm was then subtracted from all points in the dataset. The % maximal [^3H]MK-801 binding was then calculated relative to that of 1 mM glycine: all baseline subtracted DPM values were divided by the average value for 1 mM glycine. The EC50 and % maximal activity were then obtained from the best fit curve of the % maximal [^3H]MK-801 binding data modelled using the GraphPad program and the log(agonist) vs. response(three parameters) algorithm.
(§5) The tables below summarize the results for the wild type NMDAR agonists NMDAR2A, NMDAR2B, NMDAR2C, and NMDAR2D, and whether the compound is not an agonist (−), is an agonist (+), or is a strong agonist (++), where column A is based on the % maximal [^3H]MK-801 binding relative to 1 mM glycine (−=0; <100%=+; and >100%=++); and column B is based on log EC50 values (0=−; ≥1×10^−9M (e.g., −8)=+; and <1×10^−9M (e.g., −10)=++).

NMDAR2D [4] = target: T4, NMDAR2D (Homo sapiens, UniProt O15399); assay: as above; assay type: biochemical; details: 50 μM glutamate
T4 construct: expressed in transfected cells; host or cells: HEK cells (membrane extract)
Description: as §2, §3, §4, §5

NMDAR2C = target: T5, NMDAR2C (Homo sapiens, UniProt Q14957); assay: [3H]MK-801 binding, NMDAR2C expressing HEK cell membranes; assay type: biochemical; details: 50 μM glutamate; for EC50: read-out: NMDAR2C B: log EC50 (converted)
T5 construct: expressed in transfected cells; host or cells: HEK cells (membrane extract)
Description: as §2, §3, §4, §5

[5] = Sprague Dawley, plasma, po, Tmax, normal saline (compounds marked * in 1% NMP and 99% normal saline)
[6] = Sprague Dawley, in vivo, iv, read-out: C0
[7] = normal saline (compounds marked * in 1% NMP and 99% normal saline)
[8] = plasma, normal saline (compounds marked * in 1% NMP and 99% normal saline)

T4 sequence (O15399 28-1336, species assumed, other chains not shown): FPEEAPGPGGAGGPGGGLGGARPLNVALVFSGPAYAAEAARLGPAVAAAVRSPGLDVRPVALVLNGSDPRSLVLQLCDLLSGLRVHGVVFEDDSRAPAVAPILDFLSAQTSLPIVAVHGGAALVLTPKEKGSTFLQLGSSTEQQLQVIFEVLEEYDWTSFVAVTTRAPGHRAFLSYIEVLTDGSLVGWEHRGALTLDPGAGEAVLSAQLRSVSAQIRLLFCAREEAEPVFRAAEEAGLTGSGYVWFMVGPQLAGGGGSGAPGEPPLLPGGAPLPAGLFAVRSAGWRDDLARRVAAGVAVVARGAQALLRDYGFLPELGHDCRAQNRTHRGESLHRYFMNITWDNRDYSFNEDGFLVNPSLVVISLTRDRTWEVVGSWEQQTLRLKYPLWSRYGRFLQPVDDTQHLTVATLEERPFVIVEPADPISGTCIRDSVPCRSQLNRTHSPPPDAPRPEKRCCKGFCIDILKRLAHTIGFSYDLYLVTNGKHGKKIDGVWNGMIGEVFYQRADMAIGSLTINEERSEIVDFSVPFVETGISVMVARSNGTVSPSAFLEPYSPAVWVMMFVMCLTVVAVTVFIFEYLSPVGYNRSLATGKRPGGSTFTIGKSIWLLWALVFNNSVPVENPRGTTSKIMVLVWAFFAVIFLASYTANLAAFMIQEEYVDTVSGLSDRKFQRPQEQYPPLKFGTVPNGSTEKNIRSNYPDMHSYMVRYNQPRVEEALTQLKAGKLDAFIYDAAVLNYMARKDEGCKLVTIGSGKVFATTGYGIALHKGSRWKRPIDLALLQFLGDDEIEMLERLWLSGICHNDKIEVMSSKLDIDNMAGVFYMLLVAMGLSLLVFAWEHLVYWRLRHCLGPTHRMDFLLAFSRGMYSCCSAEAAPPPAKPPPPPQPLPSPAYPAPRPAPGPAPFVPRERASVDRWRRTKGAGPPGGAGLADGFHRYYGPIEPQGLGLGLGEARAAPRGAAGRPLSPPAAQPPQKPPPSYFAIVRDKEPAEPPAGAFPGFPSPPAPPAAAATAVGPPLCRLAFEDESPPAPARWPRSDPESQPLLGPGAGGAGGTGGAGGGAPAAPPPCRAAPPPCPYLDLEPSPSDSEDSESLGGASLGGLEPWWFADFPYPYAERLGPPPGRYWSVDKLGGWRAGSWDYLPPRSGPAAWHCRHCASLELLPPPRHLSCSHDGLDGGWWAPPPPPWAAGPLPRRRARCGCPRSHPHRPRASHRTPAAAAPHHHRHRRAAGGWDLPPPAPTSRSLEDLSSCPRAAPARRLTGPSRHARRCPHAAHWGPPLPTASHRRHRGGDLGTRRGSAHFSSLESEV
T5 sequence (Q14957 20-1233, species assumed, other chains not shown): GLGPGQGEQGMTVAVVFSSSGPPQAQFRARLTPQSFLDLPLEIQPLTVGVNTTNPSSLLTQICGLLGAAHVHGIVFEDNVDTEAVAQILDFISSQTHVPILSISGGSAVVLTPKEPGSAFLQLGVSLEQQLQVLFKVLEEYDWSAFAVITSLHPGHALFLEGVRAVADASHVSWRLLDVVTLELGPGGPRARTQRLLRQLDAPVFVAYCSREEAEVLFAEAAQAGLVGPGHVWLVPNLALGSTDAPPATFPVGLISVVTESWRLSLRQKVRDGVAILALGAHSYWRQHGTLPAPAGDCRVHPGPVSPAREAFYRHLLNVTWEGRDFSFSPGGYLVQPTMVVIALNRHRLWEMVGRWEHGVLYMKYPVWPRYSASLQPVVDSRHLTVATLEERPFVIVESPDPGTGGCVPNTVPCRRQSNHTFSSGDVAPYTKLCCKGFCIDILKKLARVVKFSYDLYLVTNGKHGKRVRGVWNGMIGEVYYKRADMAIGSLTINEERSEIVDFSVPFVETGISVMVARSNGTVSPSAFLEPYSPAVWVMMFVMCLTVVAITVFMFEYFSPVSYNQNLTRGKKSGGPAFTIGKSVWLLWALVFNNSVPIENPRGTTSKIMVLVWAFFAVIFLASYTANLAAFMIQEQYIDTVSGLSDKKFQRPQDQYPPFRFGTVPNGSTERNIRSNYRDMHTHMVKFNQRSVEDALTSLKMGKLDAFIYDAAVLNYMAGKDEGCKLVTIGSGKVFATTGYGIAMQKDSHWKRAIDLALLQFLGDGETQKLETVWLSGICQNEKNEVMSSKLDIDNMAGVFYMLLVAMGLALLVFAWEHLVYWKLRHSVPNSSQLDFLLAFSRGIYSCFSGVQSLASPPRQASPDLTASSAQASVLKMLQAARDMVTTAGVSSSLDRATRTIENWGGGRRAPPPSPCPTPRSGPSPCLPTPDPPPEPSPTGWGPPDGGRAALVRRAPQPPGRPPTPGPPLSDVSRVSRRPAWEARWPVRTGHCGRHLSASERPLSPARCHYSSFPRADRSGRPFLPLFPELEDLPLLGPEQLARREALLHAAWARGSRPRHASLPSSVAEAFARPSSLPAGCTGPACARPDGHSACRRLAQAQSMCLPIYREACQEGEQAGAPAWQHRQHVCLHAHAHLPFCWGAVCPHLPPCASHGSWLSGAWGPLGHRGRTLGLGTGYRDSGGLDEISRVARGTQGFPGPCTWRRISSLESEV
T2 sequence (Q12879 23-1464, species assumed, other chains not shown): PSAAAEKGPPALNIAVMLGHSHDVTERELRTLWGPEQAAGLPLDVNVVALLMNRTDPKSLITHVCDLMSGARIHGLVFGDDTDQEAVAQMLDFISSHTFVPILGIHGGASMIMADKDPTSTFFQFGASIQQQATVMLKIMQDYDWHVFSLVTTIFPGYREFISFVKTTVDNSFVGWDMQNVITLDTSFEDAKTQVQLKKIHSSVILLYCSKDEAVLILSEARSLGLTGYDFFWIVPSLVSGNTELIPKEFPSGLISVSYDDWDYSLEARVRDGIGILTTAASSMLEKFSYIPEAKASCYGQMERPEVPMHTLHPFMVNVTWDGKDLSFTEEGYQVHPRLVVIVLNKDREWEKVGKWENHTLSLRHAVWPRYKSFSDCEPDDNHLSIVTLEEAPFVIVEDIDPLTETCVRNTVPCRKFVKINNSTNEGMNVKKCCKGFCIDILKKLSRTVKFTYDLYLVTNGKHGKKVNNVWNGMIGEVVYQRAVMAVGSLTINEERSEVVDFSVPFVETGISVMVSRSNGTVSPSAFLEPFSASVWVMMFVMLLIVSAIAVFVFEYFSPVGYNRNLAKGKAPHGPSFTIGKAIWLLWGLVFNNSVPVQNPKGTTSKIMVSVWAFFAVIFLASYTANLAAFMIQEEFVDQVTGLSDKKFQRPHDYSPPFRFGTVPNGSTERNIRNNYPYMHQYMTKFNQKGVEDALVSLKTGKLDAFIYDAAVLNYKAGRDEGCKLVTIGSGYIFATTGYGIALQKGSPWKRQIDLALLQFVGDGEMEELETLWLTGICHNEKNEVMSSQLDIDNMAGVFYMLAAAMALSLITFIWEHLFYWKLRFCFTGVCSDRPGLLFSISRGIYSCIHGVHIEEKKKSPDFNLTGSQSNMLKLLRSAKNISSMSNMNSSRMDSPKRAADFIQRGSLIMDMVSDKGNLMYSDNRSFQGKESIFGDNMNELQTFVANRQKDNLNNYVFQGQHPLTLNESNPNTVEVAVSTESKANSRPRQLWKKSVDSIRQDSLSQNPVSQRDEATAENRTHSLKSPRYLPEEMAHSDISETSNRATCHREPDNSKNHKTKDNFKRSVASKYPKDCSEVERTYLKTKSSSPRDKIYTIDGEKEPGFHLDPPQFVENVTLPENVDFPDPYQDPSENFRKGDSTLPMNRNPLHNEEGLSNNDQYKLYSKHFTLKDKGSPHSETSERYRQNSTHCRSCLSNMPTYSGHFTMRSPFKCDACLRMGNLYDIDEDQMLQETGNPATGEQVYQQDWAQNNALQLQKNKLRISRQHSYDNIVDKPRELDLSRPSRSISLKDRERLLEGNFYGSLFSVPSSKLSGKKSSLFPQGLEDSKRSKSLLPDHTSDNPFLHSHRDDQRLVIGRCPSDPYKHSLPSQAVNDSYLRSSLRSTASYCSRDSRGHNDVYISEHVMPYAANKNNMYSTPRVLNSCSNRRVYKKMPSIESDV
T3 sequence (O15399 28-1336, species assumed, other chains not shown): as the sequence (O15399 28-1336, species assumed, other chains not shown) above

C[C@@H](O)[C@H](N)C(=O)N1CCN(Cc2ccccc2)C2(CNC2=O)C1 (single isomer, unassigned) [EL-1, 8-(L-Threonyl)-5-Benzyl-2,5,8-Triazaspiro[3.5]Nonan-1-One]
Emax (NMDAR2B): < 100%
EC50 (NMDAR2B): < 1 nM
bioavailability ([1]; Sprague Dawley, plasma, po, % F): 90%
AUC(0-t) ([1]; Sprague Dawley, plasma, po, AUClast, normal saline (compounds marked * in 1% NMP and 99% normal saline)): 19400 ng·h/mL
Cmax ([1]; Sprague Dawley, plasma, po, Cmax, normal saline (compounds marked * in 1% NMP and 99% normal saline)): 4980 ng/mL
Tmax [1, 5]: 30 min
CSF Cmax [1]: 56.9 ng/mL
Brain Cmax [1]: 143 ng/mL
Max Effect (mean number of 50 kHz USVs per 15 seconds) ([2]; dose .1 mg/kg): *** (***: 10.1-20)
Emax (NMDAR2A): 0%
AUC(0-t) (IV pharmacokinetics; Sprague Dawley, in vivo, iv): 4320 ng·h/mL
clearance (IV pharmacokinetics; Sprague Dawley, in vivo, iv): 7.35 mL/min/kg
half-life (IV pharmacokinetics; Sprague Dawley, in vivo, iv): 406 min
C0 (IV pharmacokinetics; [6]): 3250 ng/mL
Vd (IV pharmacokinetics; Sprague Dawley, in vivo, iv): 2.12 L/kg

CN1CCN(Cc2ccccc2)C2(CNC2=O)C1 (single isomer, unassigned) [EG-2, 5-Benzyl-8-Methyl-2,5,8-Triazaspiro[3.5]Nonan-1-One]
NMDAR2B A: % maximal [3H]MK-801 binding relative to 1 mM glycine (NMDAR2B): − (−=0)
Tmax [1, 5]: 15 min
% F [1]: 100%
AUClast [1, 7]: 3082.39 ng·h/mL
Cmax [1, 8]: 3526.63 ng/mL
EC50 (NMDAR2D [3]): < 1 nM
NMDAR2D A: % maximal [3H]MK-801 binding relative to 1 mM glycine (NMDAR2D [4]): + (<100%=+)
NMDAR2C A: % maximal [3H]MK-801 binding relative to 1 mM glycine (NMDAR2C): + (<100%=+)
EC50 (NMDAR2C): < 1 nM
NMDAR2A A: % maximal [3H]MK-801 binding relative to 1 mM glycine (NMDAR2A): − (−=0)
AUC(0-t) (IV pharmacokinetics; Sprague Dawley, in vivo, iv): 400 ng·h/mL
clearance (IV pharmacokinetics; Sprague Dawley, in vivo, iv): 83.3 mL/min/kg
half-life (IV pharmacokinetics; Sprague Dawley, in vivo, iv): 28.8 min
C0 (IV pharmacokinetics; [6]): 1100 ng/mL
Vd (IV pharmacokinetics; Sprague Dawley, in vivo, iv): 1.87 L/kg

C[C@@H](O)[C@H](N)C(=O)N1CCN(C(=O)OC(C)(C)C)CC12CNC2=O (stereo partly drawn) [EC-2, Tert-Butyl 5-(L-Threonyl)-1-Oxo-2,5,8-Triazaspiro[3.5]Nonane-8-Carboxylate]
Emax (NMDAR2B): > 100%
EC50 (NMDAR2B): < 1 nM
Max Effect (mean number of 50 kHz USVs per 15 seconds) ([2]; dose .1 mg/kg): ** (**: 7.7-10)
Emax (NMDAR2A): < 100%
EC50 (NMDAR2A): > 1 nM

CN1CCN(Cc2ccccc2)C2(CNC2=O)C1 (single isomer, unassigned) [EG-1, 5-Benzyl-8-Methyl-2,5,8-Triazaspiro[3.5]Nonan-1-One]
NMDAR2B A: % maximal [3H]MK-801 binding relative to 1 mM glycine (NMDAR2B): + (<100%=+)
EC50 (NMDAR2B): < 1 nM
% F [1]: 14%
CSF Cmax [1]: 367.18 ng/mL
Brain Cmax [1]: 334.3 ng/mL
AUClast [1, 7]: 428.79 ng·h/mL
Tmax [1, 7]: 15 min
Cmax [1, 8]: 700.4 ng/mL
NMDAR2D A: % maximal [3H]MK-801 binding relative to 1 mM glycine (NMDAR2D [4]): − (−=0)
Max Effect (mean number of 50 kHz USVs per 15 seconds) ([2]; dose .001-1 mg/kg): *** (***: 10.1-20)
NMDAR2C A: % maximal [3H]MK-801 binding relative to 1 mM glycine (NMDAR2C): ++ (>100%=++)
EC50 (NMDAR2C): > 1 nM
NMDAR2A A: % maximal [3H]MK-801 binding relative to 1 mM glycine (NMDAR2A): + (<100%=+)
EC50 (NMDAR2A): < 1 nM
AUClast (IV pharmacokinetics): 622.05 ng·h/mL
C0 (IV pharmacokinetics): 2010.43 ng/mL
Cl (IV pharmacokinetics): 53.51 mL/min/kg
T1/2 (IV pharmacokinetics): 25.8 min
Vss (IV pharmacokinetics): 0.96 L/kg

C[C@@H](O)[C@H](N)C(=O)N1CCNC2(CNC2=O)C1 (single isomer, unassigned) [EK-2, 8-(L-Threonyl)-2,5,8-Triazaspiro[3.5]Nonan-1-One]
NMDAR2B A: % maximal [3H]MK-801 binding relative to 1 mM glycine (NMDAR2B): + (<100%=+)
EC50 (NMDAR2B): < 1 nM
CSF Cmax [1]: 81.6 ng/mL
Tmax [1, 7]: 60 min
Cmax [1, 8]: 1910.5 ng/mL
Max Effect (mean number of 50 kHz USVs per 15 seconds) ([2]; dose .1 mg/kg): * (*: 6.0-7.6)
Emax (NMDAR2A): < 100%
EC50 (NMDAR2A): > 1 nM

O=C1NCC12CNCCN2Cc1ccccc1 (single isomer, unassigned) [ED-2, 5-Benzyl-2,5,8-Triazaspiro[3.5]Nonan-1-One]
NMDAR2B A: % maximal [3H]MK-801 binding relative to 1 mM glycine (NMDAR2B): + (<100%=+)
EC50 (NMDAR2B): < 1 nM
% F [1]: 54%
CSF Cmax [1]: 178.3 ng/mL
Brain Cmax [1]: 478.5 ng/mL
AUClast [1, 7]: 2178.53 ng·h/mL
Tmax [1, 7]: 15 min
Cmax [1, 8]: 1563.1 ng/mL
NMDAR2D A: % maximal [3H]MK-801 binding relative to 1 mM glycine (NMDAR2D [4]): + (<100%=+)
EC50 (NMDAR2D [4]; read-out: NMDAR2D B: log EC50 (converted)): < 1 nM
Max Effect (mean number of 50 kHz USVs per 15 seconds) ([2]; dose .001-1 mg/kg): *** (***: 10.1-20)
NMDAR2C A: % maximal [3H]MK-801 binding relative to 1 mM glycine (NMDAR2C): + (<100%=+)
EC50 (NMDAR2C): < 1 nM
NMDAR2A A: % maximal [3H]MK-801 binding relative to 1 mM glycine (NMDAR2A): − (−=0)
AUClast (IV pharmacokinetics): 806.5 ng·h/mL
C0 (IV pharmacokinetics): 1793.2 ng/mL
Cl (IV pharmacokinetics): 40.6 mL/min/kg
T1/2 (IV pharmacokinetics): 32.4 min
Vss (IV pharmacokinetics): 1.45 L/kg
